Key:
pigweed [1] = assay: Test A preemergence; type: in vivo, Amaranthus retroflexus; conditions: for Plant response rating, Pigweed / Pigweed plant response rating (0 to 100 scale): 125 g ai/ha; for Pigweed plant response rating: 500 g ai/ha
In short: (§1)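 Greenhouse pot test, loam/sand soil. Formulation: non-phytotoxic solvent mix plus surfactant. Pre: directed spray onto soil after sowing. Post: plants at 1–2 leaf, 2–10 cm. Rated visually vs untreated controls at ~10 d, 0 (no effect) to 100 (complete control).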

giant foxtail = assay: Test A postemergence; type: in vivo, Setaria faberii; conditions: 0 to 100 scale where 0 is no effect and 100 is complete control
In short: as §1

corn = assay: Test A postemergence; type: in vivo, Zea mays
In short: as §1

lambsquarters [2] = assay: Test C preemergence; type: in vivo, Chenopodium album; conditions: for Lambsquarters plant response rating: preemergence; for Plant response rating, Lambsquarters: Preemergence, scale 0 to 100, 0 no effect, 100 complete control
In short: (§2)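 Visual injury score versus untreated controls, 0 = no effect, 100 = complete control, taken 13 to 15 days after treatment in the greenhouse. Pre-emergence pots held loam/sand; post-emergence plants grew in sphagnum peat/vermiculite mix and were sprayed at the 1- to 4-leaf stage.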

yellow nutsedge = assay: Test C preemergence; type: in vivo, Cyperus esculentus; conditions: for Nutsedge, Yellow plant response rating: preemergence; for Plant response rating, Nutsedge, Yellow: Preemergence, scale 0 to 100, 0 no effect, 100 complete control
In short: as §2

pigweed [3] = assay: Test C preemergence; type: in vivo, Amaranthus retroflexus; conditions: for Pigweed plant response rating: preemergence; for Plant response rating, Pigweed: Preemergence, scale 0 to 100, 0 no effect, 100 complete control
In short: as §2

ragweed = assay: Test C preemergence; type: in vivo, Ambrosia elatior; conditions: for Ragweed plant response rating: preemergence; for Plant response rating, Ragweed: Preemergence, scale 0 to 100, 0 no effect, 100 complete control
In short: as §2

waterhemp = assay: Test C preemergence; type: in vivo, Amaranthus rudis; conditions: for Waterhemp plant response rating: preemergence; for Plant response rating, Waterhemp: Preemergence, scale 0 to 100, 0 no effect, 100 complete control
In short: as §2

galium = assay: Test C postemergence; type: in vivo, Galium aparine; conditions: for Galium plant response rating: 16 g ai/ha, visual rating; for Galium plant response rating / Plant response rating (0 to 100), Galium: postemergence; for Galium plant response rating / Plant response rating, Galium: scale 0 to 100 (0 no effect, 100 complete control); for Plant response rating (0 to 100), Galium: 125 g ai/ha; for Plant response rating, Galium: Postemergence
In short: as §2

lambsquarters [4] = assay: Test C postemergence; type: in vivo, Chenopodium album; conditions: for Plant response rating (0 to 100), Lambsquarters: 125 g ai/ha, postemergence; for Plant response rating, Lambsquarters: Postemergence, scale 0 to 100 (0 no effect, 100 complete control)
In short: as §2

morningglory = assay: Test C postemergence; type: in vivo, Ipomoea coccinea; conditions: for Plant response rating (0 to 100), Morningglory: 125 g ai/ha, postemergence; for Plant response rating, Morningglory: Postemergence, scale 0 to 100 (0 no effect, 100 complete control)
In short: as §2

kochia = assay: Test C postemergence; type: in vivo, Kochia scoparia; conditions: for Kochia plant response rating: 16 g ai/ha, visual rating; for Kochia plant response rating / Plant response rating (0 to 100), Kochia: postemergence; for Kochia plant response rating / Plant response rating, Kochia: scale 0 to 100 (0 no effect, 100 complete control); for Plant response rating (0 to 100), Kochia: 125 g ai/ha; for Plant response rating, Kochia: Postemergence
In short: as §2

wheat = assay: Test A preemergence; type: in vivo, Triticum aestivum; conditions: for Wheat plant response rating (0 to 100 scale): 125 g ai/ha; for Wheat plant response rating: 500 g ai/ha, 0 to 100 scale where 0 is no effect and 100 is complete control
In short: as §1

large (Lg) crabgrass = assay: Test A postemergence; type: in vivo, Digitaria sanguinalis; conditions: 0 to 100 scale where 0 is no effect and 100 is complete control; for Crabgrass, Large plant response rating: 125 g ai/ha; for Plant response rating, Crabgrass, Large: 500 g ai/ha
In short: as §1

velvetleaf = assay: Test A postemergence; type: in vivo, Abutilon theophrasti; conditions: 0 to 100 scale where 0 is no effect and 100 is complete control; for Velvetleaf plant response rating: 125 g ai/ha; for Plant response rating, Velvetleaf: 500 g ai/ha
In short: as §1

[5] = 0 to 100 scale where 0 is no effect and 100 is complete control
[6] = 0 to 100 scale, 0 no effect, 100 complete control, approx. 10 days
[7] = 125 g ai/ha, 0 to 100 scale where 0 is no effect and 100 is complete control
[8] = 500 g ai/ha, 0 to 100 scale, 0 no effect, 100 complete control
[9] = 16 g ai/ha, scale 0 to 100 (0 no effect, 100 complete control)
[10] = 62 g ai/ha, scale 0 (no effect) to 100 (complete control)
[11] = 125 g ai/ha, scale 0 (no effect) to 100 (complete control)
[12] = 500 g ai/ha, 0 to 100 scale where 0 is no effect and 100 is complete control

SMILES | Plant response rating, Pigweed (pigweed [1]; [5]) | Pigweed plant response rating (pigweed [1]; [6]) | Plant response rating, Foxtail, Giant (giant foxtail; 125 g ai/ha) | Plant response rating, Foxtail, Giant (giant foxtail; 500 g ai/ha) | Plant response rating, Corn (corn; [7]) | Lambsquarters plant response rating (lambsquarters [2]; [9]) | Lambsquarters plant response rating (lambsquarters [2]; [10]) | Lambsquarters plant response rating (lambsquarters [2]; [11]) | Nutsedge, Yellow plant response rating (yellow nutsedge; [9]) | Nutsedge, Yellow plant response rating (yellow nutsedge; [10]) | Nutsedge, Yellow plant response rating (yellow nutsedge; [11]) | Pigweed plant response rating (pigweed [3]; [9]) | Pigweed plant response rating (pigweed [3]; [10]) | Pigweed plant response rating (pigweed [3]; [11]) | Ragweed plant response rating (ragweed; [9]) | Ragweed plant response rating (ragweed; [10]) | Ragweed plant response rating (ragweed; [11]) | Waterhemp plant response rating (waterhemp; [9]) | Waterhemp plant response rating (waterhemp; [10]) | Waterhemp plant response rating (waterhemp; [11]) | further results
FCc1cccc(Oc2ncc(Cl)cn2)c1-n1cc(Br)cn1 [Compound 83] | 100 | 100 | 90 | 100 | 40 | 100 | 100 | 100 | 0 | 0 | 15 | 85 | 100 | 100 | 0 | 40 | 45 | 75 | 100 | 100 | Plant response rating, Corn (corn; [8]): 60; Plant response rating, Lambsquarters (lambsquarters [2]; 31 g ai/ha): 100; Plant response rating, Nutsedge, Yellow (yellow nutsedge; 31 g ai/ha): 0; Plant response rating, Pigweed (pigweed [3]; 31 g ai/ha): 100; Plant response rating, Ragweed (ragweed; 31 g ai/ha): 35; Plant response rating, Waterhemp (waterhemp; 31 g ai/ha): 100; Galium plant response rating (galium; 13 to 15 days): 50; Plant response rating (0 to 100), Galium (galium): 60; Plant response rating, Galium (galium; 31 g ai/ha, 13 to 15 days): 65; Plant response rating, Galium (galium; 62 g ai/ha): 70; Plant response rating (0 to 100), Lambsquarters (lambsquarters [4]): 80; Plant response rating, Lambsquarters (lambsquarters [4]; 31 g ai/ha, 13 to 15 days): 80; Plant response rating, Lambsquarters (lambsquarters [4]; 62 g ai/ha): 60; Plant response rating (0 to 100), Morningglory (morningglory): 85; Plant response rating, Morningglory (morningglory; 31 g ai/ha, 13 to 15 days): 65; Plant response rating, Morningglory (morningglory; 62 g ai/ha): 75; Kochia plant response rating (kochia; 13 to 15 days): 60; Plant response rating (0 to 100), Kochia (kochia): 95; Plant response rating, Kochia (kochia; 31 g ai/ha, 13 to 15 days): 70; Plant response rating, Kochia (kochia; 62 g ai/ha): 90
CCOc1cn(-c2c(Br)cccc2Oc2ncc(Cl)cn2)nn1 [Compound 84] | 100 | 100 | 100 | 100 | 20 | 75 | 100 | 100 | 0 | 5 | 40 | 85 | 100 | 100 | 0 | 60 | 85 | 100 | 100 | 100 | Plant response rating, Corn (corn; [8]): 70; Plant response rating, Lambsquarters (lambsquarters [2]; 31 g ai/ha): 85; Plant response rating, Nutsedge, Yellow (yellow nutsedge; 31 g ai/ha): 0; Plant response rating, Pigweed (pigweed [3]; 31 g ai/ha): 100; Plant response rating, Ragweed (ragweed; 31 g ai/ha): 60; Plant response rating, Waterhemp (waterhemp; 31 g ai/ha): 75; Galium plant response rating (galium; 13 to 15 days): 60; Plant response rating (0 to 100), Galium (galium): 95; Plant response rating, Galium (galium; 31 g ai/ha, 13 to 15 days): 75; Plant response rating, Galium (galium; 62 g ai/ha): 60; Plant response rating (0 to 100), Lambsquarters (lambsquarters [4]): 80; Plant response rating, Lambsquarters (lambsquarters [4]; 31 g ai/ha, 13 to 15 days): 30; Plant response rating, Lambsquarters (lambsquarters [4]; 62 g ai/ha): 55; Plant response rating (0 to 100), Morningglory (morningglory): 85; Plant response rating, Morningglory (morningglory; 31 g ai/ha, 13 to 15 days): 70; Plant response rating, Morningglory (morningglory; 62 g ai/ha): 85; Kochia plant response rating (kochia; 13 to 15 days): 55; Plant response rating (0 to 100), Kochia (kochia): 80; Plant response rating, Kochia (kochia; 31 g ai/ha, 13 to 15 days): 55; Plant response rating, Kochia (kochia; 62 g ai/ha): 70
Fc1cccc(Oc2ncc(Cl)cn2)c1-n1cc(I)cn1 [Compound 179] |  |  |  | 90 |  | 85 | 100 | 100 | 0 | 10 | 15 | 100 | 100 | 100 | 0 | 0 | 10 | 90 | 98 | 100 | Pigweed plant response rating (0 to 100 scale) (pigweed [1]): 100; Pigweed plant response rating (pigweed [1]; [5]): 100; Wheat plant response rating (0 to 100 scale) (wheat): 0; Wheat plant response rating (wheat): 30; Crabgrass, Large plant response rating (large (Lg) crabgrass): 90; Plant response rating, Crabgrass, Large (large (Lg) crabgrass): 100; Foxtail, Giant plant response rating (giant foxtail; 125 g ai/ha): 80; Velvetleaf plant response rating (velvetleaf): 100; Plant response rating, Velvetleaf (velvetleaf): 100; Corn plant response rating (corn; [7]): 30; Plant response rating, Corn (corn; [12]): 60
CCOc1cnn(-c2ccccc2Oc2ncc(Cl)cn2)c1 [Compound 187] |  |  |  | 90 |  | 5 |  | 100 | 0 |  | 5 | 45 |  | 100 | 55 |  | 55 | 25 |  | 95 | Pigweed plant response rating (0 to 100 scale) (pigweed [1]): 100; Pigweed plant response rating (pigweed [1]; [5]): 100; Wheat plant response rating (0 to 100 scale) (wheat): 0; Wheat plant response rating (wheat): 40; Crabgrass, Large plant response rating (large (Lg) crabgrass): 60; Plant response rating, Crabgrass, Large (large (Lg) crabgrass): 100; Foxtail, Giant plant response rating (giant foxtail; 125 g ai/ha): 60; Velvetleaf plant response rating (velvetleaf): 100; Plant response rating, Velvetleaf (velvetleaf): 100; Corn plant response rating (corn; [7]): 10; Plant response rating, Corn (corn; [12]): 70; Plant response rating, Lambsquarters (lambsquarters [2]; 62 g ai/ha): 98; Plant response rating, Nutsedge, Yellow (yellow nutsedge; 62 g ai/ha): 5; Plant response rating, Pigweed (pigweed [3]; 62 g ai/ha): 90; Plant response rating, Ragweed (ragweed; 62 g ai/ha): 45; Plant response rating, Waterhemp (waterhemp; 62 g ai/ha): 85
